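Exposure lasted 48 hours, with cells grown in 96-well plates and compounds tested at five concentrations. Abbreviation: GI50, concentration required for 50% inhibition of growth. TGI: total growth inhibition.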
Tests used:
Test in all cases: NCI anticancer screen, dose series, 48 h; in the data active means GI50 below about 0.43 µM; inactive means the rest
A498 renal = test system: A498 renal
UACC-257 melanoma = test system: UACC-257 melanoma
HT29 colon = test system: HT29 colon
HCC-2998 colon = test system: HCC-2998 colon
DU-145 prostate = test system: DU-145 prostate
MDA-MB-435 = test system: MDA-MB-435
OVCAR-8 ovarian = test system: OVCAR-8 ovarian
HOP-62 NSCLC = test system: HOP-62 NSCLC
BT-549 breast = test system: BT-549 breast
CCRF-CEM leukemia = test system: CCRF-CEM leukemia
SF-539 CNS = test system: SF-539 CNS
T-47D breast = test system: T-47D breast
SW-620 colon = test system: SW-620 colon
COLO 205 colon = test system: COLO 205 colon
EKVX NSCLC = test system: EKVX NSCLC
OVCAR-3 ovarian = test system: OVCAR-3 ovarian
OVCAR-4 ovarian = test system: OVCAR-4 ovarian
SK-MEL-28 melanoma = test system: SK-MEL-28 melanoma
U251 CNS = test system: U251 CNS
786-0 renal = test system: 786-0 renal
SF-268 CNS = test system: SF-268 CNS
PC-3 prostate = test system: PC-3 prostate
SK-MEL-5 melanoma = test system: SK-MEL-5 melanoma
CAKI-1 renal = test system: CAKI-1 renal
IGROV1 ovarian = test system: IGROV1 ovarian
HL-60(TB) leukemia = test system: HL-60(TB) leukemia
SF-295 CNS = test system: SF-295 CNS
NCI-H23 lung = test system: NCI-H23 lung
NCI/ADR-RES ovarian = test system: NCI/ADR-RES ovarian
SK-MEL-2 melanoma = test system: SK-MEL-2 melanoma
A549 NSCLC = test system: A549 NSCLC
RXF 393 renal = test system: RXF 393 renal
K-562 leukemia = test system: K-562 leukemia
HCT-116 colon = test system: HCT-116 colon
SNB-75 CNS = test system: SNB-75 CNS
MALME-3M melanoma = test system: MALME-3M melanoma
SNB-19 CNS = test system: SNB-19 CNS
NCI-H460 lung = test system: NCI-H460 lung
NCI-H226 lung = test system: NCI-H226 lung
SK-OV-3 ovarian = test system: SK-OV-3 ovarian
UACC-62 melanoma = test system: UACC-62 melanoma
UO-31 renal = test system: UO-31 renal
M14 melanoma = test system: M14 melanoma
NCI-H522 lung = test system: NCI-H522 lung
MCF7 breast = test system: MCF7 breast
HCT-15 colon = test system: HCT-15 colon
SN12C renal = test system: SN12C renal
ACHN renal = test system: ACHN renal
MDA-MB-231 breast = test system: MDA-MB-231 breast
KM12 colon = test system: KM12 colon
MOLT-4 leukemia = test system: MOLT-4 leukemia
OVCAR-5 ovarian = test system: OVCAR-5 ovarian
RPMI-8226 leukemia = test system: RPMI-8226 leukemia
HOP-92 NSCLC = test system: HOP-92 NSCLC
LOX IMVI melanoma = test system: LOX IMVI melanoma
SR leukemia = test system: SR leukemia
HS 578T breast = test system: HS 578T breast
TK-10 renal = test system: TK-10 renal

Clc1ccc(Cn2c(CN3CCCC3)nc3ccccc32)cc1
59.9 µM: TGI (NCI-H23 lung)
54.8 µM: TGI (CAKI-1 renal)
34.4 µM: TGI (NCI-H460 lung)
33.4 µM: TGI (COLO 205 colon) | TGI (MALME-3M melanoma)
41.2 µM: TGI (MDA-MB-435)
61.5 µM: TGI (HOP-62 NSCLC)
75.4 µM: TGI (SR leukemia)
53.4 µM: TGI (KM12 colon)
33.3 µM: TGI (SW-620 colon)
65.5 µM: TGI (SK-MEL-28 melanoma)
34.1 µM: TGI (LOX IMVI melanoma)
inactive: GI50 (A498 renal) 11.3 µM | GI50 (UACC-257 melanoma) 20 µM | GI50 (HT29 colon) 15.5 µM | GI50 (HCC-2998 colon) 21.6 µM | GI50 (DU-145 prostate) 32.9 µM | GI50 (MDA-MB-435) 17.1 µM | GI50 (OVCAR-8 ovarian) 29.7 µM | GI50 (HOP-62 NSCLC) 20.8 µM | GI50 (BT-549 breast) 18.1 µM | GI50 (CCRF-CEM leukemia) 27 µM | GI50 (SF-539 CNS) 18 µM | GI50 (T-47D breast) 19.7 µM | GI50 (SW-620 colon) 14.8 µM | GI50 (COLO 205 colon) 17.6 µM | GI50 (EKVX NSCLC) 17.5 µM | GI50 (OVCAR-3 ovarian) 18.4 µM | GI50 (OVCAR-4 ovarian) 21.9 µM | GI50 (SK-MEL-28 melanoma) 24.6 µM | GI50 (U251 CNS) 15.2 µM | GI50 (786-0 renal) 16.8 µM | GI50 (SF-268 CNS) 30.8 µM | GI50 (PC-3 prostate) 19.6 µM | GI50 (SK-MEL-5 melanoma) 13.3 µM | GI50 (CAKI-1 renal) 14.7 µM | GI50 (IGROV1 ovarian) 23.3 µM | GI50 (HL-60(TB) leukemia) 23.8 µM | GI50 (SF-295 CNS) 14.3 µM | GI50 (NCI-H23 lung) 19 µM | GI50 (NCI/ADR-RES ovarian) 24.3 µM | GI50 (SK-MEL-2 melanoma) 17.8 µM | GI50 (A549 NSCLC) 26.9 µM | GI50 (RXF 393 renal) 14.1 µM | GI50 (K-562 leukemia) 19.4 µM | GI50 (HCT-116 colon) 11 µM | GI50 (SNB-75 CNS) 21.5 µM | GI50 (MALME-3M melanoma) 14.9 µM | GI50 (SNB-19 CNS) 22.1 µM | GI50 (NCI-H460 lung) 14.5 µM | GI50 (NCI-H226 lung) 14.8 µM | GI50 (SK-OV-3 ovarian) 20 µM | GI50 (UACC-62 melanoma) 17.4 µM | GI50 (UO-31 renal) 12.4 µM | GI50 (M14 melanoma) 17.1 µM | GI50 (NCI-H522 lung) 16.3 µM | GI50 (MCF7 breast) 17 µM | GI50 (HCT-15 colon) 24.7 µM | GI50 (SN12C renal) 30.1 µM | GI50 (ACHN renal) 31.1 µM | GI50 (MDA-MB-231 breast) 18.8 µM | GI50 (KM12 colon) 19.5 µM | GI50 (MOLT-4 leukemia) 28.3 µM | GI50 (OVCAR-5 ovarian) 25.3 µM | GI50 (RPMI-8226 leukemia) 16.4 µM | GI50 (HOP-92 NSCLC) 6.03 µM | GI50 (LOX IMVI melanoma) 17 µM | GI50 (SR leukemia) 23.5 µM
38.4 µM: TGI (HT29 colon)
58.3 µM: TGI (PC-3 prostate)
38.8 µM: TGI (BT-549 breast)
33.7 µM: TGI (NCI-H522 lung)
67.7 µM: TGI (EKVX NSCLC)
54 µM: TGI (HCC-2998 colon)
30.2 µM: TGI (RXF 393 renal)
32.9 µM: TGI (786-0 renal)
87.7 µM: TGI (HCT-15 colon)
47.7 µM: TGI (OVCAR-3 ovarian)
26.2 µM: TGI (SK-MEL-5 melanoma)
31.4 µM: TGI (U251 CNS) | TGI (SF-295 CNS)
82.9 µM: TGI (SNB-75 CNS)
47.3 µM: TGI (UACC-62 melanoma)
93.3 µM: TGI (OVCAR-4 ovarian)
31.3 µM: TGI (A498 renal)
32.6 µM: TGI (MCF7 breast)
57.1 µM: TGI (SNB-19 CNS)
95.9 µM: TGI (MOLT-4 leukemia)
41.8 µM: TGI (NCI-H226 lung) | TGI (MDA-MB-231 breast)
> 100 µM: TGI (DU-145 prostate) | TGI (OVCAR-8 ovarian) | TGI (CCRF-CEM leukemia) | TGI (SF-268 CNS) | TGI (IGROV1 ovarian) | TGI (NCI/ADR-RES ovarian) | TGI (A549 NSCLC) | TGI (K-562 leukemia) | TGI (SN12C renal) | TGI (ACHN renal)
36.5 µM: TGI (UO-31 renal)
87.8 µM: TGI (OVCAR-5 ovarian)
83.5 µM: TGI (T-47D breast)
34.6 µM: TGI (SK-MEL-2 melanoma)
65.2 µM: TGI (HL-60(TB) leukemia)
24.7 µM: TGI (HCT-116 colon)
41.7 µM: TGI (RPMI-8226 leukemia)
55 µM: TGI (UACC-257 melanoma)
37.1 µM: TGI (SF-539 CNS)
29.5 µM: TGI (HOP-92 NSCLC)
48.8 µM: TGI (SK-OV-3 ovarian)
34 µM: TGI (M14 melanoma)

c1ccc(CC(Cc2ccccc2)C2=NCCCN2)cc1
7.91 µM: TGI (SK-MEL-2 melanoma)
23.6 µM: TGI (LOX IMVI melanoma)
17.3 µM: TGI (HCT-116 colon)
12.4 µM: TGI (COLO 205 colon)
93.3 µM: TGI (CCRF-CEM leukemia)
6.44 µM: TGI (SK-OV-3 ovarian)
inactive: GI50 (A498 renal) 1.84 µM | GI50 (UACC-257 melanoma) 17 µM | GI50 (HT29 colon) 3.48 µM | GI50 (HCC-2998 colon) 3.08 µM | GI50 (DU-145 prostate) 3.36 µM | GI50 (OVCAR-8 ovarian) 3.21 µM | GI50 (HOP-62 NSCLC) 4.83 µM | GI50 (BT-549 breast) 3.77 µM | GI50 (CCRF-CEM leukemia) 3.12 µM | GI50 (SF-539 CNS) 3.37 µM | GI50 (T-47D breast) 30.8 µM | GI50 (SW-620 colon) 3.94 µM | GI50 (COLO 205 colon) 3.49 µM | GI50 (EKVX NSCLC) 6.96 µM | GI50 (OVCAR-3 ovarian) 2.42 µM | GI50 (OVCAR-4 ovarian) 3.93 µM | GI50 (SK-MEL-28 melanoma) 6.4 µM | GI50 (U251 CNS) 3.38 µM | GI50 (786-0 renal) 4.26 µM | GI50 (SF-268 CNS) 5.25 µM | GI50 (PC-3 prostate) 3.87 µM | GI50 (SK-MEL-5 melanoma) 2.73 µM | GI50 (CAKI-1 renal) 6.39 µM | GI50 (IGROV1 ovarian) 4.2 µM | GI50 (HL-60(TB) leukemia) 2.38 µM | GI50 (SF-295 CNS) 3.32 µM | GI50 (NCI-H23 lung) 3.48 µM | GI50 (HS 578T breast) 4.07 µM | GI50 (NCI/ADR-RES ovarian) 2.99 µM | GI50 (SK-MEL-2 melanoma) 2.66 µM | GI50 (A549 NSCLC) 3.42 µM | GI50 (RXF 393 renal) 2.82 µM | GI50 (K-562 leukemia) 4.04 µM | GI50 (HCT-116 colon) 3.71 µM | GI50 (SNB-75 CNS) 7.8 µM | GI50 (SNB-19 CNS) 3.49 µM | GI50 (NCI-H460 lung) 3.36 µM | GI50 (NCI-H226 lung) 2.48 µM | GI50 (SK-OV-3 ovarian) 2.1 µM | GI50 (UACC-62 melanoma) 4.22 µM | GI50 (UO-31 renal) 7.83 µM | GI50 (TK-10 renal) 7.57 µM | GI50 (M14 melanoma) 3.17 µM | GI50 (MCF7 breast) 3.57 µM | GI50 (HCT-15 colon) 3.44 µM | GI50 (SN12C renal) 4.18 µM | GI50 (ACHN renal) 7.95 µM | GI50 (MDA-MB-231 breast) 5.37 µM | GI50 (KM12 colon) 3.26 µM | GI50 (MOLT-4 leukemia) 3.56 µM | GI50 (OVCAR-5 ovarian) 5.95 µM | GI50 (RPMI-8226 leukemia) 3.62 µM | GI50 (HOP-92 NSCLC) 4.52 µM | GI50 (LOX IMVI melanoma) 3.71 µM | GI50 (SR leukemia) 3.78 µM
> 100 µM: TGI (UACC-257 melanoma) | TGI (HT29 colon) | TGI (OVCAR-8 ovarian) | TGI (HOP-62 NSCLC) | TGI (SF-539 CNS) | TGI (T-47D breast) | TGI (SW-620 colon) | TGI (EKVX NSCLC) | TGI (OVCAR-4 ovarian) | TGI (SK-MEL-28 melanoma) | TGI (U251 CNS) | TGI (786-0 renal) | TGI (SF-268 CNS) | TGI (PC-3 prostate) | TGI (CAKI-1 renal) | TGI (IGROV1 ovarian) | TGI (SF-295 CNS) | TGI (NCI-H23 lung) | TGI (HS 578T breast) | TGI (NCI/ADR-RES ovarian) | TGI (A549 NSCLC) | TGI (RXF 393 renal) | TGI (K-562 leukemia) | TGI (SNB-75 CNS) | TGI (SNB-19 CNS) | TGI (UACC-62 melanoma) | TGI (UO-31 renal) | TGI (TK-10 renal) | TGI (M14 melanoma) | TGI (MCF7 breast) | TGI (HCT-15 colon) | TGI (SN12C renal) | TGI (ACHN renal) | TGI (MDA-MB-231 breast) | TGI (KM12 colon) | TGI (OVCAR-5 ovarian) | TGI (SR leukemia)
6.41 µM: TGI (HL-60(TB) leukemia)
33.2 µM: TGI (A498 renal)
9.75 µM: TGI (DU-145 prostate)
23.2 µM: TGI (MOLT-4 leukemia)
9.52 µM: TGI (SK-MEL-5 melanoma)
70.9 µM: TGI (BT-549 breast)
64.6 µM: TGI (HOP-92 NSCLC)
4.97 µM: TGI (OVCAR-3 ovarian)
21.9 µM: TGI (NCI-H460 lung)
9.35 µM: TGI (HCC-2998 colon)
42.3 µM: TGI (RPMI-8226 leukemia)
7.47 µM: TGI (NCI-H226 lung)

From PubChem BioAssay (NCI)
